Values quoted from earlier work as cited in US20240238442A1, “LIPOSOMES DISPLAYING A GLYCAN LIGAND FOR CD33 AND THEIR USE IN THE TREATMENT OF ALZHEIMER'S DISEASE” (THE GOVERNORS OF THE UNIVERSITY OF ALBERTA, priority 2021, published 2024).

Target: CD33 (Homo sapiens, UniProt P20138)
Details: free ligand

CD33, sequence (P20138 18-364): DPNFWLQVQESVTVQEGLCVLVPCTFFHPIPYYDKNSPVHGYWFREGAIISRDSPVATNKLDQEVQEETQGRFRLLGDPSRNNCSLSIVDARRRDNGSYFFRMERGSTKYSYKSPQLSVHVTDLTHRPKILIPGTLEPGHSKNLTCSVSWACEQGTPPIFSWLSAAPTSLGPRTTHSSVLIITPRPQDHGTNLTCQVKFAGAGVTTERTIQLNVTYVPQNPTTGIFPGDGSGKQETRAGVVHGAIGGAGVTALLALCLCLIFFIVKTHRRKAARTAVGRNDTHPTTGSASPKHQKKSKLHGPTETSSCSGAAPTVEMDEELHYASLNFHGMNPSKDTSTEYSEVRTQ

Kd: 87 µM
Compound: Cc1cc(C(=O)NC[C@@H](O)CC2O[C@@](OCC3OC(O[C@@H]4C(CO)O[C@@H](OCCN)C(O)C4O)C(O)C(O)[C@H]3O)(C(=O)O)CC(O)[C@H]2C(O)NC(=O)Cn2cc(C3CCCCC3)nn2)cc(C)c1O (stereo partly shown) [CD33L]
